From the supplement of paper PMC11061612

Key:
Experiment in all cases: Bliss excess, mean over the matrix (fraction); higher = more synergy
[1] = tested on: SK-GT-4 (Esophageal Adenocarcinoma)
In short: (§1)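 Bliss excess equals the observed combination effect minus the expected value EA + EB − EA·EB, where EA and EB are the effects of each agent alone. Combination Emax is the second-highest inhibition within the matrix. Inhibition was scaled from CellTiter-Glo 2.0 luminescence, with 0 set by vehicle wells and 1 by blank wells, after 72 hours of two-drug dosing of cells plated in 1536-well plates.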

[2] = tested on: NCI-H526 (Small Cell Lung Carcinoma)
In short: as §1

[3] = tested on: CHSA8926 (Chondrosarcoma)
In short: as §1

[4] = tested on: NCI-H3122 (Lung Adenocarcinoma)
In short: as §1

[5] = tested on: KYSE-270 (Esophageal Squamous Cell Carcinoma)
In short: as §1

[6] = tested on: HCC1187 (Breast Carcinoma)
In short: as §1

[7] = tested on: HCC1419 (Breast Carcinoma)
In short: as §1

[8] = tested on: SK-GT-2 (Gastric Carcinoma)
In short: as §1

[9] = tested on: KP-3 (Pancreatic Carcinoma)
In short: as §1

[10] = tested on: ST486 (Burkitt's Lymphoma)
In short: as §1

G-361 (Melanoma) = tested on: G-361 (Melanoma)
In short: as §1

[11] = tested on: CW-2 (Colorectal Carcinoma)
In short: as §1

[12] = tested on: T-T (Esophageal Squamous Cell Carcinoma)
In short: as §1

[13] = tested on: SU-DHL-5 (B-Cell Non-Hodgkin's Lymphoma)
In short: as §1

[14] = tested on: H9 (T-Cell Non-Hodgkin's Lymphoma)
In short: as §1

[15] = tested on: RPMI-8226 (Plasma Cell Myeloma)
In short: as §1

[16] = tested on: MOLM-13 (Acute Myeloid Leukemia)
In short: as §1

[17] = tested on: NCCIT (Other Solid Carcinomas)
In short: as §1

[18] = tested on: JHH-4 (Hepatocellular Carcinoma)
In short: as §1

NCI-H2731 (Mesothelioma) = tested on: NCI-H2731 (Mesothelioma)
In short: as §1

Row | SMILES | Bliss excess [1] | Bliss excess [2] | Bliss excess [3] | Bliss excess [4] | Bliss excess [5] | Bliss excess [6] | Bliss excess [7] | Bliss excess [8] | Bliss excess [9] | Bliss excess [10] | Bliss excess (G-361 (Melanoma)) | Bliss excess [11] | Bliss excess [12] | Bliss excess [13] | Bliss excess [14] | Bliss excess [15] | Bliss excess [16] | Bliss excess [17] | Bliss excess [18] | Bliss excess (NCI-H2731 (Mesothelioma))
1 | CN(CCO)CC[C@H](CSc1ccccc1)Nc1ccc(S(=O)(=O)NC(=O)c2ccc(N3CCC([C@@H](O)c4ccccc4-c4ccc(Cl)cc4)CC3)cc2)cc1S(=O)(=O)C(F)(F)F [AZD4320] + C=CCn1c(=O)c2cnc(Nc3ccc(N4CCN(C)CC4)cc3)nc2n1-c1cccc(C(C)(C)O)n1 [AZD1775] (first compound max 1 µM, partner max 1 µM) | -0.0438 | 0.0367 | 0.102 | -0.0108 | 0.0126 | -0.0064 | -0.0722 | 0.0322 | -0.0417 | -0.0447 | 0.0539 | 0.0032 | 0.0409 | 0.0007 | 0.0178 | 0.0467 | 0.0252 | 0.0045 | -0.0041 | -0.0106
2 | CC1(C)CCC(CN2CCN(c3ccc(C(=O)NS(=O)(=O)c4ccc(NCC5CCOCC5)c([N+](=O)[O-])c4)c(Oc4cnc5[nH]ccc5c4)c3)CC2)=C(c2ccc(Cl)cc2)C1 [Venetoclax] + C[C@@H](Nc1cc(F)cc(F)c1)c1cc(C(=O)N(C)C)cc2c(=O)cc(N3CCOCC3)oc12 [AZD8186] (first compound max 1 µM, 7x7, partner max 3 µM) | -0.0263 | 0.033 | 0.0214 | -0.0311 | -0.0186 | -0.0069 | -0.0316 | -0.0271 | -0.0376 | -0.0686 | 0.0075 | -0.007 | 0.0094 | 0.0358 | -0.0159 | 0.037 | 0.0046 | -0.0336 | 0.0064 | -0.0484
3 | CN(CCO)CC[C@H](CSc1ccccc1)Nc1ccc(S(=O)(=O)NC(=O)c2ccc(N3CCC([C@@H](O)c4ccccc4-c4ccc(Cl)cc4)CC3)cc2)cc1S(=O)(=O)C(F)(F)F [AZD4320] + C[C@@H]1COCCN1C2=NC(=NC(=C2)C3(CC3)[S@](=N)(=O)C)C4=C5C=CNC5=NC=C4 [AZD6738] (first compound max 1 µM, 7x7, partner max 10 µM) | -0.0873 | -0.0302 | -0.011 | -0.0965 | 0.0161 | -0.0209 | -0.0752 | 0.0109 | -0.042 | -0.0502 | -0.0395 | -0.0321 | 0.0494 | -0.0426 | -0.0283 | 0.0338 | 0.0272 | -0.0331 | -0.0657 | -0.0178
4 | CN(C)CCCOc1ccc(-c2ccc3ncc4c(c3c2)n(C2CCOCC2)c(=O)n4C)cn1 [AZD0156] + C=CCn1c(=O)c2cnc(Nc3ccc(N4CCN(C)CC4)cc3)nc2n1-c1cccc(C(C)(C)O)n1 [AZD1775] (first compound max 1 µM, partner max 1 µM) | -0.0676 | -0.0258 | -0.106 | -0.0352 | 0.0314 | -0.0117 | -0.0446 | -0.0776 | -0.0212 | 0.0097 | -0.0556 | -0.0106 | -0.0122 | -0.0016 | -0.0167 | -0.0017 | -0.0885 | 0.0278 | -0.0065 | -0.0898
5 | Cc1c2c(nn1C)CSCc1cc(n(C)n1)CSc1cc(c3ccccc3c1)OCCCc1c(C(=O)O)n(C)c3c-2c(Cl)ccc13 [AZD5991] + C1CN(CCC1(C(=O)N[C@@H](CCO)C2=CC=C(C=C2)Cl)N)C3=NC=NC4=C3C=CN4 [Capivasertib] (first compound max 1 µM, 7x7, partner max 3 µM) | -0.0213 | 0.0139 | 0.0131 | 0.0144 | 0.0421 | -0.0023 | 0.0163 | -0.0049 | -0.0102 | – | -0.0055 | 0.0132 | -0.0068 | 0.0095 | -0.0514 | 0.0079 | -0.002 | 0.076 | 0.0018 | -0.0722
6 | COc1nnc2ccc(N3CCC(c4ccc(OCCN5CCN(C)C(=O)[C@H]5C)cc4)CC3)nn12 [AZD5153] + CCN(CCO)CCCOc1ccc2c(Nc3cc(CC(=O)Nc4cccc(F)c4)[nH]n3)ncnc2c1 [AZD2811] (first compound max 1 µM, 7x7, partner max 1 µM) | -0.0421 | -0.0332 | -0.035 | -0.0217 | -0.054 | -0.0934 | -0.0414 | -0.0314 | -0.0359 | -0.0647 | -0.0432 | -0.0525 | -0.0284 | -0.0638 | -0.0163 | -0.0116 | 0.0176 | -0.0288 | -0.0334 | -0.0294
7 | Cc1cc2ncnn2cc1Nc1ncc2c(n1)n(C1CCOCC1)c(=O)n2C [AZD7648] + O=C(c1cc(Cc2n[nH]c(=O)c3ccccc23)ccc1F)N1CCN(C(=O)C2CC2)CC1 [Olaparib] (first compound max 10 µM, 7x7, partner max 10 µM) | -0.0258 | -0.0129 | -0.0511 | -0.0505 | -0.034 | -0.0092 | -0.066 | -0.0297 | -0.0409 | 0.0048 | -0.043 | -0.0201 | -0.0642 | 0.0091 | -0.0049 | -0.038 | -0.134 | -0.0112 | -0.0213 | -0.069
8 | CN(CCO)CC[C@H](CSc1ccccc1)Nc1ccc(S(=O)(=O)NC(=O)c2ccc(N3CCC([C@@H](O)c4ccccc4-c4ccc(Cl)cc4)CC3)cc2)cc1S(=O)(=O)C(F)(F)F [AZD4320] + CN(C)CCCOc1ccc(-c2ccc3ncc4c(c3c2)n(C2CCOCC2)c(=O)n4C)cn1 [AZD0156] (first compound max 1 µM, 7x7, partner max 1 µM) | -0.067 | -0.0092 | -0.0797 | -0.0486 | -0.0152 | 0.0062 | -0.0645 | 0.0006 | -0.0462 | -0.0086 | 0.001 | -0.007 | -0.0047 | -0.066 | -0.0151 | 0.0137 | -0.0649 | -0.0299 | -0.016 | -0.0485
9 | CN(CCO)CC[C@H](CSc1ccccc1)Nc1ccc(S(=O)(=O)NC(=O)c2ccc(N3CCC([C@@H](O)c4ccccc4-c4ccc(Cl)cc4)CC3)cc2)cc1S(=O)(=O)C(F)(F)F [AZD4320] + Cc1cc2ncnn2cc1Nc1ncc2c(n1)n(C1CCOCC1)c(=O)n2C [AZD7648] (first compound max 1 µM, 7x7, partner max 10 µM) | -0.0413 | -0.0069 | 0.0101 | -0.0676 | -0.0197 | -0.025 | -0.133 | -0.0034 | -0.0471 | -0.0066 | -0.0444 | -0.006 | -0.0069 | -0.0099 | 0.0046 | 0.0536 | 0.0157 | -0.059 | -0.0356 | -0.0424
10 | C[C@@H](c1ccc2nccn2c1)n1nnc2ncc(-c3cnn(C)c3)nc21 [Savolitinib] + CN(CC[C@H](CSC1=CC=CC=C1)NC2=C(C=C(C=C2)S(=O)(=O)NC(=O)C3=CC=C(C=C3)N4CCC(CC4)[C@H](C5=CC=CC=C5C6=CC=C(C=C6)Cl)O)S(=O)(=O)C(F)(F)F)CCO [AZD4320] (first compound max 1 µM, 7x7, partner max 1 µM) | – | – | -0.0241 | – | – | -0.0091 | -0.0736 | -0.0294 | – | – | -0.0621 | – | – | -0.0451 | -0.0425 | -0.0379 | 0.0288 | – | -0.0309 | –
11 | CC(=O)Nc1cccc(-n2c(=O)n(C3CC3)c(=O)c3c(Nc4ccc(I)cc4F)n(C)c(=O)c(C)c32)c1 [Trametinib] + Cc1nc(-c2cn3c(n2)-c2ccc(-c4cnn(C(C)(C)C(N)=O)c4)cc2OCC3)n(C(C)C)n1 [Taselisib] (first compound max 1 µM, 7x7, partner max 10 µM) | 0.103 | -0.0308 | – | 0.116 | 0.176 | 0.0462 | 0.032 | 0.134 | 0.0777 | -0.033 | 0.0078 | 0.122 | 0.245 | 0.0452 | 0.0402 | 0.25 | 0.215 | 0.0184 | 0.0462 | 0.0312
12 | C=CCn1c(=O)c2cnc(Nc3ccc(N4CCN(C)CC4)cc3)nc2n1-c1cccc(C(C)(C)O)n1 [AZD1775] + C1CN(CCC1(C(=O)N[C@@H](CCO)C2=CC=C(C=C2)Cl)N)C3=NC=NC4=C3C=CN4 [Capivasertib] (first compound max 3 µM, partner max 3 µM) | -0.0802 | -0.06 | 0.0361 | -0.0298 | – | 0.0216 | -0.005 | 0.0174 | 0.0131 | 0.0215 | -0.0042 | -0.0487 | -0.0047 | 0.0233 | -0.0311 | 0.0216 | 0.0263 | 0.0254 | 0.0061 | 0.0078
13 | COc1nnc2ccc(N3CCC(c4ccc(OCCN5CCN(C)C(=O)[C@H]5C)cc4)CC3)nn12 [AZD5153] + CN(CC[C@H](CSC1=CC=CC=C1)NC2=C(C=C(C=C2)S(=O)(=O)NC(=O)C3=CC=C(C=C3)N4CCC(CC4)[C@H](C5=CC=CC=C5C6=CC=C(C=C6)Cl)O)S(=O)(=O)C(F)(F)F)CCO [AZD4320] (first compound max 1 µM, 7x7, partner max 1 µM) | – | – | -0.0781 | – | – | 0.0165 | -0.0403 | 0.0412 | – | – | 0.0314 | – | – | -0.0155 | -0.0291 | -0.0027 | 0.0205 | – | 0.0556 | –
14 | Cc1c2c(nn1C)CSCc1cc(n(C)n1)CSc1cc(c3ccccc3c1)OCCCc1c(C(=O)O)n(C)c3c-2c(Cl)ccc13 [AZD5991] + Cc1cc2ncnn2cc1Nc1ncc2c(n1)n(C1CCOCC1)c(=O)n2C [AZD7648] (first compound max 1 µM, 7x7, partner max 10 µM) | -0.0651 | -0.0042 | -0.0376 | -0.0563 | -0.0342 | -0.0299 | -0.0196 | 0.0164 | -0.0462 | -0.053 | 0.0031 | 0.0242 | 0.007 | -0.0377 | – | -0.0436 | -0.0165 | -0.0494 | -0.0217 | -0.0637
